Reference: patent US9333234B2, “Combination of somatostatin-analogs with 11beta-hydroxylase inhibitors” (Novartis AG, priority 2012, dated 2016)
Where two headings read alike, the source gives them in different places. Numbered stars: 1 amine (or outer) side, 2 acyl side, 3 side chain; on linkers, the order of the positions; unused ones are H or OH. Square brackets hold non-standard residues; d marks the D form. Side chains are listed from the residue outwards. Peptide text beside a SMILES is read from it. * marks the point of attachment. Ethylenediamine = C(CN[*:2])N[*:1]; Hyp = O=C(O)[C@@H]1C[C@@H](O)CN1; Phg = N[C@H](C(=O)O)c1ccccc1; CO = O=C([*:1])[*:2]; Bn = c1ccc(C*)cc1

Key:
[1] = Solubility profile, excess solids equilibrated in each solvent; assay type: physicochemical
Experimental: Excess solids were equilibrated in each solvent for over 24 hours at 25° C.±0.1. Concentration in supernatant was measured by gravimetry for organic solvents and by HPLC from aqueous solvents and propylene glycol.

Wistar Hannover rats = assay type: in vivo; conditions: for Serum corticosterone, Change from Control (%): Female rats; for Effects on serum corticosterone (PD marker), in words: compared to control
Source text: Another group of rats (10/sex) received daily doses of Ultrapure water, by oral gavage, and the Acetate buffered solution pH 4.5 for injection USP, by subcutaneous injection, and served as controls.
Study activities included clinical examinations, involving twice daily exams for mortality and signs of ill health or reaction to treatment, daily pre-dose and 1-hour post dose cage-side observations, weekly detailed examination, body weights and food consumption, two ophthalmic examinations (pretreatment and week 13), clinical pathology (hematology, coagulation and clinical biochemistry, urinalysis) and immunology at the end of dosing (Adrenocorticotropic hormone, Corticosterone, Growth hormone, Insulin-like growth factor and urinalysis for Corticosterone). […] Post mortem evaluation included macroscopic observations, organ weight assessments (absolute and relative to body) and microscopic examinations.

[2] = Solubility and stability in water at 0.1% target concentration, 50° C.; assay type: physicochemical; conditions: for stability / behaviour in water: 2 days at 50° C.
[3] = test system: patients with Cushing's disease
Experimental: Dose escalation was planned every 2 weeks to 5, 10, 20 and 50 mg bid until UFC normalized, in which case the dose was maintained until day 70, when treatment stopped. Dose reduction for tolerability was permitted. UFC was assessed on the penultimate day of each 2-week period. Patients were monitored until day 84. The primary endpoint was UFC≦ULN or a ≧50% decrease from baseline at day 70 using the mean of 3 UFC samples collected during the week before day 70.

[4] = Hygroscopicity, sorption/desorption isotherms (VTI 100 humidity microbalance); assay type: physicochemical; conditions: 25° C.
Experimental: Sorption/desorption isotherms were measured using the VTI 100 humidity microbalance (VTI Corporation, Hialeah, Fla., USA). Measurements were carried out at 25° C. Samples were dried under N2 flow at 25° C.

[5] = test system: Cushing's disease patients; conditions: Colao et al. N Engl J Med 2012; 366:32-42; cited from earlier work
[6] = Female rats (n = 10), dose 20/— (COMPOUND A 20 mg/kg/day alone)
[7] = Male rats (n = 10), dose 20/— (COMPOUND A 20 mg/kg/day alone)
[8] = of the 9 patients who completed the active treatment phase
[9] = patients with Cushing's disease
[10] = Female rats (n = 10), dose —/0.3 (SOM230 0.3 mg/kg/day alone)
[11] = Male rats (n = 10), dose —/0.3 (SOM230 0.3 mg/kg/day alone)

N#Cc1ccc([C@H]2CCc3cncn32)c(F)c1 [Compound A, (R)-4-(6,7-Dihydro-5H-pyrrolo[1,2-c]imidazol-5-yl)-3-fluoro-benzonitrile]
Solubility ([1]; Ethanol, over 24 hours at 25° C.): >50 mg/mL | Solubility ([1]; Ethyl Acetate, over 24 hours at 25° C.): >50 mg/mL | Solubility ([1]; organic solvent or mixture, thermodynamic from solid, Acetone, over 24 hours at 25° C., read-out: Solubility): > 50 mg/mL | Solubility ([1]; simulated gastric fluid, thermodynamic from solid, pH 1, over 24 hours at 25° C., read-out: Solubility): > 50 mg/mL | Absolute adrenal weights (Wistar Hannover rats; [6]): 0.07002 g | Mean serum corticosterone level (Wistar Hannover rats; [6]): 166.76 | Serum corticosterone, Change from Control (%) (Wistar Hannover rats; dose 20/— (COMPOUND A 20 mg/kg/day alone)): −36% | Absolute adrenal weights (Wistar Hannover rats; [7]): 0.04969 g | Mean serum corticosterone level (Wistar Hannover rats; [7]): 221.83 | adrenalcortical hypertrophy (Wistar Hannover rats; female rats): produced adrenalcortical hypertrophy | Effects on serum corticosterone (PD marker), in words (Wistar Hannover rats; rats): decreases in serum corticosterone in females only | Effects on adrenal gland organ weights, in words (Wistar Hannover rats; rats, more pronounced in females): increased adrenal gland organ weights | solubility in water at the 0.1% target concentration [2]: largely insoluble | stability / behaviour in water [2]: converted from a free flowing solid into an oily material | ACTH level doubled, share of patients ([3]; 10-week trial): half of the patients | effect on urinary free cortisol (UFC) ([3]; 10-week trial): successfully reduced urinary free cortisol (UFC) in all patients | adverse event fatigue (patients) ([3]; 12 patients enrolled): 7/12 | adverse event headache (patients) ([3]; 12 patients enrolled): 3/12 | adverse event nausea (patients) ([3]; 12 patients enrolled): 4/12 | patients with ACTH levels >2× baseline ([3]; 12 patients enrolled): Five | patients with study drug-related hypokalemia (K+<3.5 mmol/L) ([3]; 12 patients enrolled): Four | mean SBP decrease from baseline ([3]; day 70): 13.1 mmHg | patients with UFC >ULN after treatment discontinuation ([3]; measurements at day 84): 6 patients | patients achieving primary endpoint (UFC≦ULN or ≧50% decrease from baseline at day 70) [3, 8]: 9 patients | patients with normal UFC levels on day 70 [3, 8]: 8 patients | patients with normal UFC levels on at least one assessment during the study ([3]; oral, 2-50 mg bid dose escalation): 11 of 11 | efficacy conclusion [3, 9]: demonstrated efficacy | tolerability / safety profile [3, 9]: satisfactory safety profile | tolerability / safety profile ([3]; patients with Cushing's disease, listed as COMPOUND A): generally well tolerated

N#Cc1ccc([C@H]2CCc3cncn32)c(F)c1.O=P(O)(O)O [Phosphate salt, Phosphate Salt of 4-(R)-6,7-dihydro-5H-pyrrolo[1,2-c]imidazol-5-yl-3-fluoro-benzonitrile (Form A)]
Solubility ([1]; Water, over 24 hours at 25° C.): >50 mg/mL | Solubility ([1]; pH 1, over 24 hours at 25° C.): >50 mg/mL | Solubility ([1]; pH 6.8, over 24 hours at 25° C.): >50 mg/mL | solubility in water at the 0.1% target concentration [2]: soluble | stability / behaviour in water [2]: stable | hygroscopicity, water uptake ([4]; 5% RH): 0% | hygroscopicity, water uptake ([4]; 75% relative humidity): 0.9%

NCCCC[C@@H]1NC(=O)[C@@H](Cc2c[nH]c3ccccc23)NC(=O)[C@H](c2ccccc2)NC(=O)[C@@H]2C[C@@H](OC(=O)NCCN)CN2C(=O)[C@H](Cc2ccccc2)NC(=O)[C@H](Cc2ccc(OCc3ccccc3)cc2)NC1=O [SOM230, cyclo[{4-(NH2—C2H4—NH—CO—O-)Pro}-Phg-DTrp-Lys-Tyr(4-Bzl)-Phe], reference compound] (cyclo([Hyp]([CO-Ethylenediamine])[Phg][dW]KY(Bn)F))
cortisol levels in Cushing's disease patients [5]: significant decrease of cortisol levels | Absolute adrenal weights (Wistar Hannover rats; [10]): 0.04585 g | Mean serum corticosterone level (Wistar Hannover rats; [10]): 190.56 | Relative adrenal weight (% of body weight) (Wistar Hannover rats; [10]): 0.02432 % of body weight | Serum corticosterone, Change from Control (%) (Wistar Hannover rats; dose —/0.3 (SOM230 0.3 mg/kg/day alone)): −27% | Absolute adrenal weights (Wistar Hannover rats; [11]): 0.03615 g | Mean serum corticosterone level (Wistar Hannover rats; [11]): 233.68 | Relative adrenal weight (% of body weight) (Wistar Hannover rats; [11]): 0.01326 % of body weight | Effects on serum corticosterone (PD marker), in words (Wistar Hannover rats; rats): decreases in serum corticosterone in females only
